# From ChEMBL document CHEMBL5665443, “Enzyme Inhibitor Single Concentration assay results for EUbOPEN Chemogenomics Library” (2024)
# Assays:
# [1] = biological target: T1, Endonuclease III-like protein 1 (Homo sapiens) (UniProt P78549); conditions: Compound Concentration 10.0 uM, Hit No;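 note: enzyme assay tracking NTHL1 cutting and release of a quenched double-stranded DNA oligo substrate, read as fluorescence at 594 nm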
# T1 sequence (whole entry): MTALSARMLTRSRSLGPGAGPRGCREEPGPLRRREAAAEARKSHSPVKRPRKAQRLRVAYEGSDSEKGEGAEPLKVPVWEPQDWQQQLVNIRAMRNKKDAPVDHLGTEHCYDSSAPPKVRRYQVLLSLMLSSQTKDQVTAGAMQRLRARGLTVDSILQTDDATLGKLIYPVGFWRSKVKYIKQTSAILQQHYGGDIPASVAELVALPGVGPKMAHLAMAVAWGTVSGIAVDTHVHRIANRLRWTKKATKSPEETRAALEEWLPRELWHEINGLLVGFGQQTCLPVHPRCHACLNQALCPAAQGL
# Description: Inhibition of NTHL1 by quantifying inhibition of NTHL1-mediated cleavage and dissociation of quenched duplex DNA oligonucleotides, measured as fluorescence at 594 nm.
# [2] = biological target: Methyl-CpG-binding domain protein 4 (Homo sapiens) (UniProt O95243); conditions: Compound Concentration 10.0 uM;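 note: MBD4 activity read as fluorescence at 594 nm from cleavage and release of a quenched duplex DNA oligonucleotide, with APE1 coupled to incise the strand and raise turnover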
# Sequence of Methyl-CpG-binding domain protein 4 (Homo sapiens) (O95243 whole entry, the tested form may be a part): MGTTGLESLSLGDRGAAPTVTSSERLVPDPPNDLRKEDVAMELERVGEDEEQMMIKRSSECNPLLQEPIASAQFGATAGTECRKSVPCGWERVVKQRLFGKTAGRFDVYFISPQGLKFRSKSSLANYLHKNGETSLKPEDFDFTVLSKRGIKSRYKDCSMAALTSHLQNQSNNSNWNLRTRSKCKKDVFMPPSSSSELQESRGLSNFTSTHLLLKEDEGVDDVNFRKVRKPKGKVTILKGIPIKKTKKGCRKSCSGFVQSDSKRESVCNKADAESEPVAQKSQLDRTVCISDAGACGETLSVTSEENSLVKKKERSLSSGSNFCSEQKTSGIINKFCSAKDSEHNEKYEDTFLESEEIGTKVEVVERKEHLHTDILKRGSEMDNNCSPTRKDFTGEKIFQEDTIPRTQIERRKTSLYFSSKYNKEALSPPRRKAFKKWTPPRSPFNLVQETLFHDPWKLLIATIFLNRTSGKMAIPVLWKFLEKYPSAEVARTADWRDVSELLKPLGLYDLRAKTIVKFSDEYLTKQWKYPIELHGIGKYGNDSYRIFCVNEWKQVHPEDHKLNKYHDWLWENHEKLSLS
# Description: Inhibition of MBD4 by quantifying inhibition of MBD4-mediated cleavage and dissociation of quenched duplex DNA oligonucleotides, measured as fluorescence at 594 nm. To generate a functional strand incision and increase turn-over this assay is coupled to APE1.
# [3] = biological target: T2, Endonuclease 8-like 2 (Homo sapiens) (UniProt Q969S2); conditions: Compound Concentration 10.0 uM, Hit No;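 note: fluorescence at 594 nm reports NEIL2 cutting and release of a quenched double-stranded DNA oligo substrate, reduced signal read as inhibition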
# T2 sequence (whole entry): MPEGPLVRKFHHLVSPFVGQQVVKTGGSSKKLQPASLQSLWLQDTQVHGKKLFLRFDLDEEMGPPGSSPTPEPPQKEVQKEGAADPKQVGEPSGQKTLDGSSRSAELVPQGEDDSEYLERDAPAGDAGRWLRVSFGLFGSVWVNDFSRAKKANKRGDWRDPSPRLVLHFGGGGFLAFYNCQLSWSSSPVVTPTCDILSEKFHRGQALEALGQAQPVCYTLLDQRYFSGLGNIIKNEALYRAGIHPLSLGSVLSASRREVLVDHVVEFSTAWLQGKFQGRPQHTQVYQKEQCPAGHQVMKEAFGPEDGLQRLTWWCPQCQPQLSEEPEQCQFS
# Description: Inhibition of NEIL2 by quantifying inhibition of NEIL2-mediated cleavage and dissociation of quenched duplex DNA oligonucleotides, measured as fluorescence at 594 nm.
# [4] = biological target: DNA-3-methyladenine glycosylase (Homo sapiens) (UniProt P29372); conditions: Compound Concentration 10.0 uM;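 note: enzyme assay where MPG cuts a quenched duplex DNA oligonucleotide probe, paired with APE1 for strand incision and turnover, read as fluorescence at 594 nm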
# Sequence of DNA-3-methyladenine glycosylase (Homo sapiens) (P29372 whole entry): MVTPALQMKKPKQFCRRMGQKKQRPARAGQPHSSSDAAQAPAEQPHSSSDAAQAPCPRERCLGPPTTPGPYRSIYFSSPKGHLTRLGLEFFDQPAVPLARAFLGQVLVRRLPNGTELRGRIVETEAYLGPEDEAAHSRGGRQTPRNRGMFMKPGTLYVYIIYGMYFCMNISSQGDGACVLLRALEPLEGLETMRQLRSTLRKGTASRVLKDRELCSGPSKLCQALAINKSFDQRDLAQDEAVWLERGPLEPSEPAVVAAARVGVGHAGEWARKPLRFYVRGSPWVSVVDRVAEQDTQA
# Description: Inhibition of MPG by quantifying inhibition of MPG-mediated cleavage and dissociation of quenched duplex DNA oligonucleotides, measured as fluorescence at 594 nm. To generate a functional strand incision and increase turn-over this assay is coupled to APE1.
# [5] = biological target: T3, Single-strand selective monofunctional uracil DNA glycosylase (Homo sapiens) (UniProt Q53HV7); conditions: Compound Concentration 10.0 uM, Hit No;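 note: enzymatic SMUG1 assay coupled with APE1, reading fluorescence at 594 nm released when a quenched double-stranded DNA oligonucleotide substrate is cleaved and separated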
# T3 sequence (whole entry): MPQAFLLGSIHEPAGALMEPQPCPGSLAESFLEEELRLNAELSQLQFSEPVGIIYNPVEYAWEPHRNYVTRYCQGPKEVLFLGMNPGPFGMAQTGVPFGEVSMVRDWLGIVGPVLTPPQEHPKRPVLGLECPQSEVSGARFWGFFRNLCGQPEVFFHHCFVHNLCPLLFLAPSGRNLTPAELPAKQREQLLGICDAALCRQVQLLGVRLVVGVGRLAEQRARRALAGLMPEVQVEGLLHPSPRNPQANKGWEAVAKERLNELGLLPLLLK
# Description: Inhibition of SMUG1 by quantifying inhibition of SMUG1-mediated cleavage and dissociation of quenched duplex DNA oligonucleotides, measured as fluorescence at 594 nm. To generate a functional strand incision and increase turn-over this assay is coupled to APE1.
# [6] = biological target: G/T mismatch-specific thymine DNA glycosylase (Homo sapiens) (UniProt Q13569); conditions: Compound Concentration 10.0 uM;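 note: human TDG cleavage of quenched duplex DNA oligonucleotides coupled to APE1, strand release read as fluorescence at 594 nm, inhibition of TDG activity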
# Sequence of G/T mismatch-specific thymine DNA glycosylase (Homo sapiens) (Q13569 whole entry): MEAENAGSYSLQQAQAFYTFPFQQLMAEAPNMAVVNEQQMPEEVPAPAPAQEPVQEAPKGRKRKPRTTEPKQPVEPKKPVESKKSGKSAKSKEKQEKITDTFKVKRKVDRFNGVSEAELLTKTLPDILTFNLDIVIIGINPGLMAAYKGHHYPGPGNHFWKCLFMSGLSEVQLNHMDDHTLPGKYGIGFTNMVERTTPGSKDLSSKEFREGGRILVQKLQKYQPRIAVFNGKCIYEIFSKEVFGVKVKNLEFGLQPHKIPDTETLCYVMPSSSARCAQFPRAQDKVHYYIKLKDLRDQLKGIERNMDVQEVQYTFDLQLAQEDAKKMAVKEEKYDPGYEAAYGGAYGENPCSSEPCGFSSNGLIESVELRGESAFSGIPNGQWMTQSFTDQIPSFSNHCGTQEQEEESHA
# Description: Inhibition of TDG by quantifying inhibition of TDG-mediated cleavage and dissociation of quenched duplex DNA oligonucleotides, measured as fluorescence at 594 nm. To generate a functional strand incision and increase turn-over this assay is coupled to APE1.
# [7] = biological target: Endonuclease 8-like 1 (Homo sapiens) (UniProt Q96FI4); conditions: Compound Concentration 10.0 uM, Hit No;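 note: fluorescence at 594 nm from quenched duplex DNA oligonucleotides released by NEIL1 cleavage and strand separation, reported as reduction of this enzyme activity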
# Sequence of Endonuclease 8-like 1 (Homo sapiens) (Q96FI4 whole entry): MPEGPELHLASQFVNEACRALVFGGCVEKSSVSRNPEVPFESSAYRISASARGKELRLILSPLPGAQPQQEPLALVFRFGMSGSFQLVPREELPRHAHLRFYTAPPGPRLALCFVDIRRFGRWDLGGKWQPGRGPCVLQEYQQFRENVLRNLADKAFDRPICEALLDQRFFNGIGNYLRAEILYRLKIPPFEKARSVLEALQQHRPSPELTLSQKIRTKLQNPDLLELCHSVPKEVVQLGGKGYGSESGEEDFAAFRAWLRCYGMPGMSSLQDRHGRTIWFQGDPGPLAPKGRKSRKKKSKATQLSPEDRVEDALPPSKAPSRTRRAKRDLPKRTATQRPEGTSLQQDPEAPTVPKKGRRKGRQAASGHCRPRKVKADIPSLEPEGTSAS
# Description: Inhibition of NEIL1 by quantifying inhibition of NEIL1-mediated cleavage and dissociation of quenched duplex DNA oligonucleotides, measured as fluorescence at 594 nm.
# [8] = biological target: N-glycosylase/DNA lyase (Homo sapiens) (UniProt O15527); conditions: Compound Concentration 10.0 uM;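 note: OGG1 cleavage of a quenched duplex DNA oligonucleotide, coupled to APE1 for strand incision, read as fluorescence at 594 nm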
# Sequence of N-glycosylase/DNA lyase (Homo sapiens) (O15527 whole entry): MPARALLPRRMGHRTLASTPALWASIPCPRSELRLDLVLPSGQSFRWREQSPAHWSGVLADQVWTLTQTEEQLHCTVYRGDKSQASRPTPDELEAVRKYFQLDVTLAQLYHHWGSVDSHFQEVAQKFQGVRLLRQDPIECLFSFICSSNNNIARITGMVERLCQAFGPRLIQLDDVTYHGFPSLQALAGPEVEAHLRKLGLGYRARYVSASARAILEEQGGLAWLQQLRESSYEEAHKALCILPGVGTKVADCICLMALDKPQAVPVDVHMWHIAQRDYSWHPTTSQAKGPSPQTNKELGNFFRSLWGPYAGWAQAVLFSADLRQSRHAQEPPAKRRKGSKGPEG
# Description: Inhibition of OGG1 by quantifying inhibition of OGG1-mediated cleavage and dissociation of quenched duplex DNA oligonucleotides, measured as fluorescence at 594 nm. To generate a functional strand incision and increase turn-over this assay is coupled to APE1.
# [9] = biological target: T4, Adenine DNA glycosylase (Homo sapiens) (UniProt Q9UIF7); conditions: Compound Concentration 10.0 uM, Hit No;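 note: human MUTYH activity read as 594 nm fluorescence from cleavage and release of a quenched DNA duplex, coupled with APE1 for strand incision, lower signal meaning inhibition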
# T4 sequence (whole entry): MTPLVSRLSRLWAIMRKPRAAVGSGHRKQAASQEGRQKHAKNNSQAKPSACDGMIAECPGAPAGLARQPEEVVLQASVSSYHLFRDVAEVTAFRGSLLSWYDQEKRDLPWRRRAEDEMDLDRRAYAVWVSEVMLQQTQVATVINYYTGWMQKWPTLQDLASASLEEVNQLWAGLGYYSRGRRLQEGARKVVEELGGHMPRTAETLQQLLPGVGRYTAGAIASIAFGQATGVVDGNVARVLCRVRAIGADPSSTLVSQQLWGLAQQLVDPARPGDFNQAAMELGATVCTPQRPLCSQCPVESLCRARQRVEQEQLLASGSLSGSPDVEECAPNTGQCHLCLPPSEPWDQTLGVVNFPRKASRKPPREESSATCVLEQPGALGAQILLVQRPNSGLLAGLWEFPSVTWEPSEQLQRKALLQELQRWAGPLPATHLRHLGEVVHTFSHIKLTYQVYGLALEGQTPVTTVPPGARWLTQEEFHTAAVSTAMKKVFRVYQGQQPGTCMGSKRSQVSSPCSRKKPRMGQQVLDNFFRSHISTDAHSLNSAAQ
# Description: Inhibition of MUTYH by quantifying inhibition of MUTYH-mediated cleavage and dissociation of quenched duplex DNA oligonucleotides, measured as fluorescence at 594 nm. To generate a functional strand incision and increase turn-over this assay is coupled to APE1.
# [10] = biological target: Uracil-DNA glycosylase (Homo sapiens) (UniProt P13051); conditions: Compound Concentration 10.0 uM, Hit No;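 note: UNG excision on a quenched double-stranded DNA oligo probe, with APE1 added for strand incision and turnover, read as fluorescence at 594 nm as strands separate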
# Sequence of Uracil-DNA glycosylase (Homo sapiens) (P13051 whole entry): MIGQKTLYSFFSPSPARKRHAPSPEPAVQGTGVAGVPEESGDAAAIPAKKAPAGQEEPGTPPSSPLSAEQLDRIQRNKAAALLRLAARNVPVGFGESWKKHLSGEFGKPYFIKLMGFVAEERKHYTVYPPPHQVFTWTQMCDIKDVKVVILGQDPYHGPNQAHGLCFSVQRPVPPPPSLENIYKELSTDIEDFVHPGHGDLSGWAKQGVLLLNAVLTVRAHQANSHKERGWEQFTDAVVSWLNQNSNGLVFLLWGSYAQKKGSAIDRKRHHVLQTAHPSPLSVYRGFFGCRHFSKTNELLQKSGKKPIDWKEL
# Description: Inhibition of UNG by quantifying inhibition of UNG-mediated cleavage and dissociation of quenched duplex DNA oligonucleotides, measured as fluorescence at 594 nm. To generate a functional strand incision and increase turn-over this assay is coupled to APE1.
SMILES,inhibition [1],inhibition ([2]; Hit No),inhibition [3],inhibition ([4]; Hit No),inhibition [5],inhibition ([6]; Hit No),inhibition [7],inhibition ([8]; Hit No),inhibition [9],inhibition [10],inhibition ([2]; Hit Yes),inhibition ([4]; Hit Yes),inhibition ([6]; Hit Yes),inhibition ([8]; Hit Yes)
O=C(O)CC1CCC2(CC1)CCN(c1cc(OC(F)(F)F)ccc1Cl)CC2,-1.74%,25.2%,7.5%,14.1%,4.67%,32.9%,3.8%,8.63%,19.4%,-5.76%,,,,
Cc1ccc(C(C)(O)c2nc3ccccc3s2)c(C)c1 (stereo not given),8.52%,0.731%,11%,10.5%,9.99%,14.6%,7.8%,2.68%,0.661%,-8.45%,,,,
N#Cc1c(O)nc(SCc2cccc(F)c2F)nc1C1CC1,17.3%,31%,6.5%,5.35%,14.3%,26.8%,-3.76%,21.3%,43.4%,-3.9%,,,,
O=C(O)CCc1ccc(NCc2cccc(Oc3ccccc3)c2)cc1,-4.39%,13.6%,-9.01%,6.47%,-4.08%,20%,-7.7%,-0.368%,13.9%,-1.29%,,,,
CC(/C=C1\SC(=S)N(CCCC(=O)Nc2ccc(C(=O)O)c(O)c2)C1=O)=C\c1ccccc1,0.0916%,64%,13.7%,34.2%,-1.92%,53%,11.6%,25.4%,46.5%,-7.24%,,,,
COc1cc(OC)c(NC(=O)Nc2cc(C)on2)cc1Cl,17.9%,-2.96%,3.98%,-9.71%,-8.83%,-8.88%,-2.66%,-6.94%,-8.2%,-3.91%,,,,

# Second part, the compound after the results:
inhibition [1],inhibition ([2]; Hit No),inhibition [3],inhibition ([4]; Hit No),inhibition [5],inhibition ([6]; Hit No),inhibition [7],inhibition ([8]; Hit No),inhibition [9],inhibition [10],inhibition ([2]; Hit Yes),inhibition ([4]; Hit Yes),inhibition ([6]; Hit Yes),inhibition ([8]; Hit Yes),SMILES
8.82%,,7.29%,51.7%,36.2%,64.7%,12.3%,21.2%,90.4%,6.28%,78.6%,,,,CCNC(=O)NS(=O)(=O)c1sc(CC(C)C)cc1-c1ccc(Cn2c(-c3ccccc3)nc(OC)c2C=O)cc1
0.785%,11.8%,1.58%,34.4%,26.8%,50.8%,10%,14.7%,35%,12.8%,,,,,COc1cc(Nc2ccnc3ccc(Br)cc23)cc(OC)c1OC
8.82%,,-1.11%,,-6.46%,,1.34%,-3.51%,104%,2%,98%,83.7%,101%,,COc1ccc(NC(=O)c2ccc(-c3ccc(-c4noc(C)n4)cc3C)cc2)cc1OCCN(C)C
29.8%,67.2%,28.2%,33.1%,24%,61.3%,13.9%,,50.6%,7.14%,,,,45.1%,COc1cc(C(=O)NS(=O)(=O)c2ccccc2C)ccc1Cc1cn(C)c2ccc(NC(=O)OC3CCCC3)cc12
